According to patent publication EP0319906A2, “Novel quinoline derivatives, processes for preparation thereof and antibacterial agent containing them” (Dainippon Pharmaceutical Co., Ltd., priority 1987, dated 1989):
Converted amounts (≈) assume the structure as drawn.

Tests used:
[1] = in vivo; settings: mouse, po, orally given to male mice (ddY), dead mice counted after 7 days, Behrens-Kaerber method, read-out: LD₅₀
Method: A suspension containing each of compounds of this invention in various concentrations was orally given to male mice (ddY) at a dose of 0.1 ml per 10 g of body weight. The number of dead mice was counted after 7 days, and the value of median lethal dose (LD₅₀, mg/kg) was calculated in accordance with the Behrens-Kaerber method.

[2] = Urinary excretion in mice; format: in vivo
Method: A suspension containing Compound 1 was orally administered to mace at a dose of 5 mg/kg. Urine was collected over a period of 24 hours after administration. The level of the compound in urine was determined by the thin-layer cup-plated method using Escherichia coli kp as an indicator organism.

[3] = tested on: C. Trachomatics G/ur 1448; assay: Antichlamydia activity, MIC in McCoy cells (inclusion bodies); format: cell-based; settings: C. Trachomatics G/ur 1448; McCoy cells, 36 °C for 40-48 hours; calculated for free base; read-out: minimum inhibitory concentrations (MIC)
Method: (§1) The figures in the table show minimum inhibitory concentrations (MIC), (μg/ml), calculated for free base. Minimum inhibitory concentrations (MIC) were determined as follows. […] The cells were trypsinized and suspended in the same culture medium at a cell concentration of 1-2 x 10^5 cells/ml. One ml of the cell suspension was pipetted into flat-bottomed plastic tubes (14 mm in diameter) containing a cover slip (12 mm in diameter). The tubes were incubated in 5 % CO2-air at 36 °C for 20 hours. One-half ml of a chlamydial suspension (ca. 1-4 x 103 inclusion body forming units) was added into each tube, which was then centrifuged at 1500 x g for 60 minutes. The tubes were incubated for 1 hour at 36 °C. […] After further incubation at 36 °C for 40-48 hours, the cells on the cover glasses were stained with the Giemsa's solution. […] The MIC was defined as the lowest drug concentration where there were no inclusion bodies in all the cells on the cover slip.

[4] = tested on: C. Trachomatics G/ur 1242; assay: as above; format: cell-based; settings: C. Trachomatics G/ur 1242; McCoy cells, 36 °C for 40-48 hours; calculated for free base; read-out: minimum inhibitory concentrations (MIC)
Method: as §1

[5] = tested on: C. Trachomatics G/ur 1317; assay: as above; format: cell-based; settings: C. Trachomatics G/ur 1317; McCoy cells, 36 °C for 40-48 hours; calculated for free base; read-out: minimum inhibitory concentrations (MIC)
Method: as §1

[6] = tested on: C. Trachomatics G/ur 931; assay: as above; format: cell-based; settings: C. Trachomatics G/ur 931; McCoy cells, 36 °C for 40-48 hours; calculated for free base; read-out: minimum inhibitory concentrations (MIC)
Method: as §1

Question: For `Cc1c(F)c(N2C[C@@H](C)N[C@@H](C)C2)c(F)c2c1c(=O)c(C(=O)O)cn2C1CC1` [Compound 1, 1-cyclopropyl-6,8-difluoro-5-methyl-7-(cis-3,5-demethyl-1-piperazinyl)-1,4-dihydro-4-oxoquinoline-3-carboxylic acid], which LD50 at 168 h [1] is on record?
Answer: > 2000 mg/kg

Question: What about the Amount ([2]; amount in urine over 24 hours after oral 5 mg/kg) of the same compound?
Answer: 0.105 mg

Question: And the dose excreted at 24 h ([2]; mouse, in vivo, oral 5 mg/kg, mice, read-out: Urinary recovery for 24 hours)?
Answer: 12.7%

Question: And the Volume ([2]; urine collected over 24 hours after oral 5 mg/kg)?
Answer: 14.0 mL

Question: What about the MIC [3] of the same compound?
Answer: 0.025 µg/mL (≈ 0.0639 µM)

Question: And the MIC [4]?
Answer: 0.025 µg/mL (≈ 0.0639 µM)

Question: And the MIC [5]?
Answer: 0.013 µg/mL (≈ 0.0332 µM)

Question: What about the MIC [6] of the same compound?
Answer: 0.013 µg/mL (≈ 0.0332 µM)
